Reference: the NIST ThermoML archive (doi:10.1021/acs.jced.5b00860)

Conditions: for surface tension liquid-gas: Maximal bubble pressure; for electrical conductivity / viscosity / mass density: 101.33 kPa, Liquid; for electrical conductivity: Alternating current cell with electrodes; for viscosity: Concentric cylinders viscometry; for mass density: Vibrating tube method

CCCCn1cc[n+](C)c1.O=C([O-])O [1-butyl-3-methylimidazolium hydrogen carbonate]
Conditions	electrical conductivity [S/m]	mass density [kg/m3]	surface tension liquid-gas [mN/m]	viscosity [mPa·s]
288.15 K	0.274	1164.1	34.9	122.9
293.15 K	0.322	1160.5	34.4	94.8
298.15 K	0.376	1157.08	34	73.73
303.15 K	0.439	1153.64	33.5	57.64
308.15 K	0.496	1150	33.1	45.33
313.15 K	0.557	1146.51	32.6	35.86
318.15 K	0.622	1142.95	32.2	28.85
323.15 K	0.689	1139.45	31.7	22.93
328.15 K	0.755	1136.1	31.2	18.54
333.15 K	0.823	1132.53	30.8	14.81
338.15 K	0.893	1128.92	30.4	11.88
343.15 K	0.963	1125.52	29.9	10.04

CCCCC[n+]1ccn(C)c1.O=P([O-])(O)O [1-methyl-3-pentylimidazolium dihydrogen phosphate]
Conditions	electrical conductivity [S/m]	mass density [kg/m3]	surface tension liquid-gas [mN/m]	viscosity [mPa·s]
288.15 K	0.164	1148.62	41.8	327.8
293.15 K	0.201	1145.42	41.5	259.1
298.15 K	0.243	1142.29	41.2	205
303.15 K	0.29	1139.09	40.9	162.6
308.15 K	0.341	1135.81	40.6	130
313.15 K	0.398	1132.55	40.3	103.3
318.15 K	0.457	1129.43	40	84.04
323.15 K	0.523	1126.27	39.7	68.45
328.15 K	0.588	1122.94	39.3	56.55
333.15 K	0.665	1119.93	39	46.91
338.15 K	0.744	1116.63	38.7	38.55
343.15 K	0.825	1113.49	38.4	31.43

CCC[n+]1ccn(C)c1.O=P([O-])(O)O [1-methyl-3-propylimidazolium dihydrogen phosphate]
Conditions	electrical conductivity [S/m]	mass density [kg/m3]	surface tension liquid-gas [mN/m]	viscosity [mPa·s]
288.15 K	0.469	1202.41	46.4	99.38
293.15 K	0.536	1198.96	46.1	78.41
298.15 K	0.613	1195.45	45.8	61.92
303.15 K	0.693	1191.95	45.5	49.58
308.15 K	0.785	1188.45	45.2	39.3
313.15 K	0.879	1184.95	44.9	32.16
318.15 K	0.977	1181.43	44.6	25.81
323.15 K	1.08	1177.89	44.3	21.02
328.15 K	1.19	1174.36	44	17.17
333.15 K	1.3	1170.8	43.7	13.85
338.15 K	1.41	1167.24	43.4	11.43
343.15 K	1.55	1163.66	43.1	10.04

CCCCCn1cc[n+](C)c1C.O=S(=O)([O-])O [2,3-dimethyl-1-pentylimidazolium hydrogen sulfate]
Conditions	electrical conductivity [S/m]	mass density [kg/m3]	surface tension liquid-gas [mN/m]	viscosity [mPa·s]
288.15 K	–	1196.47	42.5	772.4
293.15 K	–	1193.23	42.2	597
298.15 K	0.075	1190.07	42	462.8
303.15 K	0.105	1186.89	41.7	358.7
308.15 K	0.145	1183.89	41.5	281.1
313.15 K	0.197	1180.69	41.2	224.2
318.15 K	0.257	1177.69	40.9	176
323.15 K	0.324	1174.61	40.7	140.1
328.15 K	0.399	1171.29	40.4	113
333.15 K	0.485	1168.33	40.1	90
338.15 K	0.573	1165.21	39.9	73.77
343.15 K	0.675	1162.18	39.6	57.54
